Experimental data published in US10385056B2, “4-substituted pyrrolo[2,3-d]pyrimidine compound and use thereof” (JIANGSU CAREFREE PHARMACEUTICAL CO., LTD, priority 2014, dated 2019).

Legend:
phosphorylation of JAK2 = assay: CTLL-2 cells, IL-2 stimulated, Western blot of phosphorylation; assay type: cell-based; details: Mus musculus, starved 6 h with compound, IL-2 150 U/mL 10 min, phosphorylation of JAK2 by Western blot, read-out: IC50 g (nM) JAK2
Description: (§1) Incubating for 10 min and collecting cells. Adding cell lysis buffer for cell lysis. Collecting protein to perform WEST-Blot detection, detecting phosphorylated JAK1, the phosphorylation of JAK2 and the phosphorylated STAT5, and obtaining the IC50 value.

phosphorylated JAK1 = assay: as above; assay type: cell-based; details: Mus musculus, starved 6 h with compound, IL-2 150 U/mL 10 min, phosphorylated JAK1 by Western blot, read-out: IC50 g (nM) JAK1
Description: as §1

phosphorylated STAT5 = assay: as above; assay type: cell-based; details: Mus musculus, starved 6 h with compound, IL-2 150 U/mL 10 min, phosphorylated STAT5 by Western blot, read-out: IC50 g (nM) STAT5
Description: as §1

JAK2 = JAK2 (Homo sapiens, UniProt O60674); assay: Caliper Mobility Shift Assay, kinase inhibition; assay type: biochemical; details: ATP by Km value
Chain of JAK2 (O60674 whole entry, species assumed): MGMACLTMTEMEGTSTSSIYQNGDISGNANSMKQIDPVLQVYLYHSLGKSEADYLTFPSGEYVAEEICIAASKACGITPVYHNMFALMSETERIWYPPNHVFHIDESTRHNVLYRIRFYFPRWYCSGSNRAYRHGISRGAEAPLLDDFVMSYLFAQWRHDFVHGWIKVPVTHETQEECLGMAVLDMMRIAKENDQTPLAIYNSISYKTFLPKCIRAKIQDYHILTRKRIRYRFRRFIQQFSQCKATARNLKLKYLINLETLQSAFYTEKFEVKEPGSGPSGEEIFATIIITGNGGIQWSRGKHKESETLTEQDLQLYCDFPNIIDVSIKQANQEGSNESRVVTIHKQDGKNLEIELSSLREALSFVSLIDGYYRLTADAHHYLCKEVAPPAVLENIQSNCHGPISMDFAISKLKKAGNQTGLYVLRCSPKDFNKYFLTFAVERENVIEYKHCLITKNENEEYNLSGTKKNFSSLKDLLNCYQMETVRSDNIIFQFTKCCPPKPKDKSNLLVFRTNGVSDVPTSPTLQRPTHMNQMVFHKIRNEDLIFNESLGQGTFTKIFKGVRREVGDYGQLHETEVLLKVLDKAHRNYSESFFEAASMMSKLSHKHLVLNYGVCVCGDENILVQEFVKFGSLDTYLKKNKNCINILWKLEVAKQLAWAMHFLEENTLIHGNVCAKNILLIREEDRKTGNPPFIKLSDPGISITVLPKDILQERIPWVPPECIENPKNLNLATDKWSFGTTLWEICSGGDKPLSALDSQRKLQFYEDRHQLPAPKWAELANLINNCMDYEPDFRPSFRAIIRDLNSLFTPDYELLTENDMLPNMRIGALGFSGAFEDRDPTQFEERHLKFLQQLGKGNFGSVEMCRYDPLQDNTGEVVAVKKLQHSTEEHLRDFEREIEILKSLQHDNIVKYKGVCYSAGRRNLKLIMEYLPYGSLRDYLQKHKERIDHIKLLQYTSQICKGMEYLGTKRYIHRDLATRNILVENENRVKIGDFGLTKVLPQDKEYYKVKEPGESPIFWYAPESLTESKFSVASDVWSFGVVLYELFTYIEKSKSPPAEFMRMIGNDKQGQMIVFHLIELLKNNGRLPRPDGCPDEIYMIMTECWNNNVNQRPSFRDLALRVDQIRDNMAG

JAK3 = target: T1, JAK3 (Homo sapiens, UniProt P52333); assay: Caliper Mobility Shift Assay, kinase inhibition; assay type: biochemical; details: ATP by Km value
T1 sequence (P52333 1-1124): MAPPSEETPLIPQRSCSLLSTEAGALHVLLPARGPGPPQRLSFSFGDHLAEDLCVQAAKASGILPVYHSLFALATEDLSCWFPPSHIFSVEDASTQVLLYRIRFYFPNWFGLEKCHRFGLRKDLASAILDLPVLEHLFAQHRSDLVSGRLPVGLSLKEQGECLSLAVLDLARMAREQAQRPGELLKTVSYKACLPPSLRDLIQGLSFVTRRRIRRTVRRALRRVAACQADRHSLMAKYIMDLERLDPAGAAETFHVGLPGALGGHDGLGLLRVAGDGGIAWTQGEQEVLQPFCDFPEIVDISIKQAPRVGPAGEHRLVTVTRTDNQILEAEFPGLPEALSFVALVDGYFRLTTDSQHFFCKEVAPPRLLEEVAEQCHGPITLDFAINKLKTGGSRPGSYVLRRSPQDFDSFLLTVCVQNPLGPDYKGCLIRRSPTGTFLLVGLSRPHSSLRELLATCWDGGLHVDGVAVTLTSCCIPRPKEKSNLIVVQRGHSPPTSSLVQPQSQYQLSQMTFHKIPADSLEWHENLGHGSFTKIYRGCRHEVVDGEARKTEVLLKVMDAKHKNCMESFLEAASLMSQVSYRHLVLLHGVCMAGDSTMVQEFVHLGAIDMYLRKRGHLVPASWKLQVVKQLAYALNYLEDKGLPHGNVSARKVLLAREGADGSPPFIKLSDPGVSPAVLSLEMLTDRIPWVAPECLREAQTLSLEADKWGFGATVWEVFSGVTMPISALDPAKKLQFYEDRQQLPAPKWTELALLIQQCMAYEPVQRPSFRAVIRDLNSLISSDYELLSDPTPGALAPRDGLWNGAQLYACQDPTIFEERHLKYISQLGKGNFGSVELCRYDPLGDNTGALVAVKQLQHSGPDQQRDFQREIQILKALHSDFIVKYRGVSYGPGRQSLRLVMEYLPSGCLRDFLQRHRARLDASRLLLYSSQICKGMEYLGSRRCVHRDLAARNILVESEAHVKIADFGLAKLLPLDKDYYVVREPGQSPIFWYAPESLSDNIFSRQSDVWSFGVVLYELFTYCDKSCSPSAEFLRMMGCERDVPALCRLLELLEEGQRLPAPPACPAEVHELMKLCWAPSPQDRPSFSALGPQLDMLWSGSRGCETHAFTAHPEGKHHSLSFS

[1] = test system: rat with rheumatoid arthritis; assay: Collagen-induced rheumatoid arthritis model, arthritis score; assay type: in vivo; details: DBA/1J rat, bovine Type II collagen/CFA model, intragastric administration, scored 2 weeks after administration, 1-4 scoring method
Description: For the function of the compound inhibiting rheumatoid arthritis, selecting DBA/1J rat, carrying out subcutaneous injection after complete emulsion of 50 ug of bovine Type II collagen and isometric complete Freund's adjuvant (CFA). Strengthening immunization once 21 days after adequate emulsion of 50 ug of same antigen and incomplete Freund's adjuvant (IFA). Starting observation and recording from the 45th day. Using 1-4 scoring method: 1 score, normal; 2 scores, swelling of one joint; 3 scores, swelling of more than one joint but not all joints; 4 scores, severe swelling or stiffness of the whole claw. Adding scores of all claws to obtain the total score of arthritis in rat. Showing successful model establishment when the total joint score of the rat is more than 1. After successfully establishing the model of rat with rheumatoid arthritis, using the compound of the invention to feed the rat by intragastric administration and scoring arthritis of the rat 2 weeks after administration.

JAK1 = JAK1 (Homo sapiens, UniProt P23458); assay: Caliper Mobility Shift Assay, kinase inhibition; assay type: biochemical; details: ATP by Km value
Chain of JAK1 (P23458 whole entry, species assumed): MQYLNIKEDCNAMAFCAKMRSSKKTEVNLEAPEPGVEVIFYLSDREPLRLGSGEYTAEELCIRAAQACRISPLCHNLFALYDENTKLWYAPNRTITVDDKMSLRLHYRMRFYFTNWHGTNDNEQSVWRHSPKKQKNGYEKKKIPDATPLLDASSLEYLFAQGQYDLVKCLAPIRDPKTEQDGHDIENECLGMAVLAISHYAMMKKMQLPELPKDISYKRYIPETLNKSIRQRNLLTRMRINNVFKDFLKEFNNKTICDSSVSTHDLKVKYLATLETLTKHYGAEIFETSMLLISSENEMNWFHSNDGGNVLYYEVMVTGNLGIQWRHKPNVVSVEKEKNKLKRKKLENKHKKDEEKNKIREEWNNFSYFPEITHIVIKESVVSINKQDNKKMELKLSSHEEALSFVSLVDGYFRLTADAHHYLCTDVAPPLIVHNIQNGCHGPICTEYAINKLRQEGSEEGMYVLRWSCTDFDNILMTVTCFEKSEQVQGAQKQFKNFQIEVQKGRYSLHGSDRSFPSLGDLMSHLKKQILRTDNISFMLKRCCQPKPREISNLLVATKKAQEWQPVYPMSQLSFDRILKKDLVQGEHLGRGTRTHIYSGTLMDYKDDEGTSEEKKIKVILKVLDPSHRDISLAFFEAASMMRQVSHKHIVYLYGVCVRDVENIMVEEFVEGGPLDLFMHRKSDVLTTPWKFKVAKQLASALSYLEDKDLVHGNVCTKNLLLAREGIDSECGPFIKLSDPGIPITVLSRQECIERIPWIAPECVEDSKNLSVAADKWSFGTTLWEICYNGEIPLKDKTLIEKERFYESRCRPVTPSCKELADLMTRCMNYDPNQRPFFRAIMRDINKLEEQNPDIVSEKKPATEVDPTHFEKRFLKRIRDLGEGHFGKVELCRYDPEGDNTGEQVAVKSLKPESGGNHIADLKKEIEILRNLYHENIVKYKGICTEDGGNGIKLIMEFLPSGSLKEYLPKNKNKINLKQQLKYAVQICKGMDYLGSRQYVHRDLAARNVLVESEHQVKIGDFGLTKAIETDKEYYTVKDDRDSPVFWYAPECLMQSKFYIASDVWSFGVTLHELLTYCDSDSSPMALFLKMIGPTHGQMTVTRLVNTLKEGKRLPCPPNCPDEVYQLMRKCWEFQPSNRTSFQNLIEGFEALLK

Jurkat cells = assay: Inhibition of cell proliferation of human lymphocytoma (CCK-8); assay type: cell-based; details: 48 h, CCK-8, 450 nm absorption
Description: Spreading the Jurkat cells out for in-vitro cultivation on a 96-well plate with 1500 cells in each well, making the highest concentration of the compound be 50 μM in the cultivation system, and diluting the drug concentration according to 10-time step dilution.

IC50 (phosphorylation of JAK2) | IC50 (phosphorylated JAK1) | IC50 (phosphorylated STAT5) | IC50 (JAK2) | IC50 (JAK3) | IC50 (JAK1) | IC50 (Jurkat cells) | Compound | Score of arthritis [1]
8 nM | 22 nM | 322 nM | 7.1 nM | 200 nM | 22 nM | 458 nM | CCCCS(=O)(=O)N1CC(CC#N)(n2cc(-c3ncnc4[nH]ccc34)c3ccccc32)C1 [Example 6, 2-(3-(3-(7H-pyrrole[2,3-d]pyrimidine-4-yl)-1H-indole-1-yl)-1-(butylsulfonyl)azetidine-3-yl)acetonitrile] | 2.3
9.6 nM | 45 nM | 214 nM | 1.5 nM | 116 nM | 15 nM | 123 nM | CN(C)S(=O)(=O)N1CC(CC#N)(n2cc(-c3ncnc4[nH]ccc34)c3ccccc32)C1 [Example 7] | 2.5
15.2 nM | 18.5 nM | 309 nM | 0.61 nM | 28 nM | 0.5 nM | 225 nM | CCS(=O)(=O)N1CC(CC#N)(n2cc(-c3ncnc4[nH]ccc34)c3ccc(F)cc32)C1 [Example 20, 2-(1-(ethylsulfonyl)-3-(6-fluoro-3-(7H-pyrrole[2,3-d]pyrimidine-4-yl)-1H-indole-1-yl)azetidine-3-yl)acetonitrile] | 1.6
28.7 nM | 42.9 nM | 201 nM | 2.9 nM | 262 nM | 23 nM | 136 nM | CCS(=O)(=O)N1CC(CC#N)(n2cc(-c3ncnc4[nH]ccc34)c3cc(OC)ccc32)C1 [Example 64, 2-(1-(ethylsulfonyl)-3-(5-methoxyl-3-(7H-pyrrole[2,3-d]pyrimidine-4-yl)-1H-indole-1-yl)azetidine-3-yl)acetonitrile] | 2.3
